According to US20200399238A1, “THERAPEUTIC AURONES” (MIDDLE TENNESSEE STATE UNIVERSITY, priority 2016, published 2020):

Assays:
[1] = tested on: PMA-differentiated THP-1 cells; test: Alamar Blue cell viability assay, THP-1; type: cell-based, human; settings: THP-1 cells, 4 h with LPS, mean ± SD
Protocol: THP-1 cells were maintained in RPMI 1640 medium supplemented with 10% heat-inactivated FBS and 1% penicillin/streptomycin (complete culture medium) at 37° C. with 5% CO2 supplemented. Cell concentrations were adjusted to desired concentrations for each experiment by centrifugation at 500×g for 5 min and resuspended in complete culture medium with 100 nM of PMA. Cell concentration was adjusted to 5×10^5 cells/ml for all assays with the exception of 2.5×10^5 cells/ml were used for NF-κB nuclear translocation assay. Cells were seeded onto 96-, 24-, or 12-well plates and incubated for 48 to 72 h to allow for differentiation. Cells were washed with serum-free RPMI 1640 medium before each experiment to remove undifferentiated cells. […] Cells were seeded into tissue culture plates at 10% confluence and grown to 80% confluence within 72 h. For live cell microscopy, 1×10^5 cells/ml were seeded into 35 mm glass-bottom (MatTek) dishes 24 h prior to imaging. For luciferase assays, 1.2×10^5 cells/well were seeded into 24-well tissue culture-treated plates.
Following treatment, the relative cell viability was measured by Alamar Blue assay. For Alamar Blue assays, supernatants were replaced with culture medium containing 1× Alamar Blue reagent and incubated overnight. Cell viability was assessed by measuring relative fluorescent units (RFU) on the SpectraMax M2e microplate reader (Molecular Devices Inc., Sunnyvale, Calif., USA) at Ex 560 nm and Em 590 nm. The results were expressed as a percentage relative to LPS alone control cells. The effects of the vehicle control, DMSO, on cell viability were also assessed.
(§1) Dexamethasone is a synthetic glucocorticoid that suppresses LPS-induced pro-inflammatory cytokine expression and was used as a control (Abraham, Lawrence et al. 2006). Supernatants were collected for human cytokine ELISAs and the manufacturer's protocol was followed to assess the cytokine response. Cells remaining after the supernatant collection were tested for relative viability by Alamar Blue cytotoxicity assay as previously described.

TNFα = test: Cytokine response by ELISA, TNFα; type: cell-based, human; settings: for effect on TNFα expression: LPS-stimulated THP-1, ELISA
Protocol: as §1

[2] = LPS-stimulated THP-1 cells, 20 μM, mean ± SD
[3] = LPS-stimulated THP-1 cells, 20 and 40 μM (one cell for all concentrations)

## Cc1ccc(/C=C2\Oc3ccccc3C2=O)o1 [compound 2]
[1]; 25 μM
  Average % Viability (4 h with LPS): 99.4 ± 9.3%
[1]; 50 μM
  Average % Viability (4 h with LPS): 118.3 ± 1.3%
[1]; 100 μM
  Average % Viability (4 h with LPS): 108.9 ± 2.0%
TNFα
  effect on TNFα expression: complete loss of activity
TNFα; LPS-stimulated THP-1 cells, 25, 50 and 100 μM (one cell for all concentrations)
  Average % TNF-α Inhibition: No Inhibitions

## O=C1/C(=C/c2ccccc2O)Oc2ccccc21 [aurone 4, (Z)-2-(2-hydroxybenzylidene)benzofuran-3(2H)-one]
[1]; 20 μM
  Average % Viability (4 h with LPS): 99.4 ± 0.5%
TNFα
  effect on TNFα expression: low activity
TNFα; [2]
  Average % TNF-α Inhibition: No Inhibition

## COc1cc(/C=C2\Oc3ccccc3C2=O)ccc1O [aurone 7, (Z)-2-(4-hydroxy-3-methoxybenzylidene)benzofuran-3(2H)-one]
[1]; 20 μM
  Average % Viability (4 h with LPS): 97.0 ± 0.3%
TNFα
  effect on TNFα expression: weaker activity
TNFα; [2]
  Average % TNF-α Inhibition: No Inhibition

## O=C1/C(=C/c2ccc(O)cc2)Oc2ccccc21 [Aurone 6, (Z)-2-(4-hydroxybenzylidene)benzofuran-3(2H)-one]
[1]; 20 μM
  Average % Viability (4 h with LPS): 99.8 ± 1.5%
[1]; 40 μM
  Average % Viability (4 h with LPS): 98.5 ± 0.1%
TNFα; [3]
  Average % TNF-α Inhibition: No Inhibitions

## O=C1/C(=C/c2cccc(O)c2)Oc2ccccc21 [Aurone 5, (Z)-2-(3-hydroxybenzylidene)benzofuran-3(2H)-one]
[1]; 20 μM
  Average % Viability (4 h with LPS): 94.6 ± 1.2%
[1]; 25 μM
  Average % Viability (4 h with LPS): 92.9 ± 1.4%
[1]; 40 μM
  Average % Viability (4 h with LPS): 90.9 ± 0.6%
TNFα; LPS-stimulated THP-1 cells, 20, 25 and 40 μM (one cell for all concentrations)
  Average % TNF-α Inhibition: No Inhibitions

## COc1cccc(/C=C2\Oc3ccccc3C2=O)c1O [aurone 8, (Z)-2-(2-hydroxy-3-methoxybenzylidene)benzofuran-3(2H)-one]
[1]; 20 μM
  Average % Viability (4 h with LPS): 101.3 ± 2.6%
TNFα
  effect on TNFα expression: lack of activity
TNFα; [3]
  Average % TNF-α Inhibition: No Inhibitions

## COc1ccc(/C=C2\Oc3ccccc3C2=O)cc1O [aurone 9, (Z)-2-(3-hydroxy-4-methoxybenzylidene)benzofuran-3(2H)-one]
[1]; 20 μM
  Average % Viability (4 h with LPS): 101.8 ± 2.1%
other
  melting point: 186 to 187 °C
TNFα
  effect on TNFα expression: weaker activity
TNFα; [2]
  Average % TNF-α Inhibition: No Inhibition

## COc1cc(/C=C2\Oc3ccccc3C2=O)ccc1O [Aurone 7, (Z)-2-(4-hydroxy-3-methoxybenzylidene)benzofuran-3(2H)-one]
TNFα; Homo sapiens, LPS-stimulated THP-1 cells, 40 μM, mean ± SD, read-out: Average % TNF-α Inhibition
  inhibition at 40 µM: 10.4 ± 4.7%

## O=C1/C(=C/c2ccco2)Oc2ccccc21 [compound 3]
[1]; 12.5 μM
  Average % Viability (4 h with LPS): 104.3 ± 2.2%
[1]; 25 μM
  Average % Viability (4 h with LPS): 102.1 ± 0.8%
[1]; 50 μM
  Average % Viability (4 h with LPS): 92.2 ± 0.9%
TNFα
  effect on TNFα expression: complete loss of activity
TNFα; LPS-stimulated THP-1 cells, 12.5, 25 and 50 μM (one cell for all concentrations)
  Average % TNF-α Inhibition: No Inhibitions
